Results on seven compounds are retold here after PMC10107299, “Neutralizing the Impact of the Virulence Factor LecA from Pseudomonas aeruginosa on Human Cells with New Glycomimetic Inhibitors” (Angewandte Chemie (International Ed. in English), 2023).

Data set [1] is described as follows: Plasma protein binding (rapid equilibrium device), murine plasma. The class given is in vitro ADME, mouse. Particulars: CD-1, mouse, plasma, read-out: PPB Mouse (converted). How it is done:
(§1) mixer (Eppendorf). Acetonitrile and caffeine were dispensed using a Mantis Formulatrix. Then samples were centrifuged for 20 min at 2.270 x g at 4 °C and the supernatants were transferred to 96-well Greiner V-bottom plates. Peak areas of each compound and of the internal standard were analyzed using the MultiQuant 3.0 software (AB Sciex). Peak areas of the respective compound were normalized to the internal standard peak area and to the respective peak areas at time point 0 min: (C/D)/(A/B) with A: peak area of the compound at time point 0 min, B: peak area of the internal standard at time point 0 min, C: peak area of the compound at the respective time point, D: peak area of the internal standard at the respective time point. […]
(§2) Assessment of plasma protein binding
(§3) Plasma protein binding was assessed using the rapid equilibrium device (RED) system from ThermoFisher. Compounds were dissolved in DMSO. […]
(§4) high plasma protein binding. Compounds were diluted in murine plasma (from CD-1 mice, pooled) or in human plasma (human donors, both genders, pooled) to a final concentration of 1 µM. Dialysis buffer and plasma samples were added to the respective chambers according the manufacturer’s protocol. The RED plate was sealed with a tape and incubated at 37 °C for 2 hours at 800 rpm on an Eppendorf MixMate vortex-mixer. Then samples were withdrawn from the respective chambers. To 25 µL of each dialysis sample, 25 µL of plasma and to 25 µL of plasma sample, 25 µL of dialysis buffer was added. Then 150 µL ice-cold extraction solvent (ACN/H2O (90:10) containing 12.5 ng/mL caffeine as internal standard) was added. Samples were incubated for 30 min on ice. Then samples were centrifuged at 4 °C at 2270 x g for 10 min.
(§5) Supernatants were transferred to Greiner V-bottom 96-well plates and sealed with a tape. The […]
(§6) percentage of bound compound was calculated as follows:
(§7) (1) % free = (concentration buffer chamber / concentration plasma chamber) *100 […]
(§8) Samples were analyzed using an Agilent 1290 Infinity II HPLC system coupled to an AB Sciex QTrap 6500plus mass spectrometer. LC conditions were as follows: column: Agilent […]
(§9) Zorbax Eclipse Plus C18, 50x2.1 mm, 1.8 µm; temperature: 30 °C; injection volume: 5 µL per […]
(§10) sample; flow rate: 700 µL/min. Samples were run under acidic and buffered conditions.
(§11) Solvents for acidic conditions: A1: water + 0.1% formic acid; solvent B1: 95% acetonitrile/5% […]
(§12) H2O + 0.1% formic acid; solvents for buffered conditions: A2: 95% water + 5% acetonitrile + […]
(§13) 5 mM ammonium acetate + 40 µL/L acetic acid; B2: 95% acetonitrile + 5% water + 5 mM […]
(§14) ammonium acetate + 40 µL/L acetic acid. The same gradient was applied for acidic and […]
(§15) buffered conditions: 99% A at 0 min, 99% A until 1 min, 99% - 0% A from 1 min to 4.0 min, […]
(§16) 0% A until 5.0 min. Mass transitions for controls and compounds are depicted in the following […]

Data set [2] in a line: Kinetic solubility in TBS/Ca2+ buffer (HPLC-MS). It is filed as physicochemical. The following applies: aqueous buffer, kinetic from dmso stock; TBS/Ca2+ buffer pH 7.4, 1 % DMSO, N≥3; read-out: Solubility S (kinetic). Here is the method: Next, we quantified the solubility of at least one representative of each new class and of one parent bisacylhydrazone in aqueous media (Table 1). […]
TBS/Ca2+ buffer (20 mM Tris, 137 mM NaCl, 2.6 mM KCl at pH 7.4 supplemented with 1 mM […]
CaCl2) in presence of 25% DMSO. […]
Kinetic solubility was determined on the analytical HPLC-MS using Compass QuantAnalysis quantification software (Bruker). Samples were prepared from DMSO stock solutions by dilution with TBS/Ca2+ buffer to 100 µM with 1% DMSO present. Samples were incubated on a shaker for 1 h at r.t., centrifuged (21380 g, 20 min), supernatants were diluted with DMSO (1:3), analyzed by HPLC-MS and fitted to the individual calibration curves.
Every experiment was repeated independently at least three times. […]

Data set [3] in a line: Plasma protein binding (rapid equilibrium device), human plasma. The class given is in vitro ADME. Particulars: both sexes, human, plasma, read-out: PPB Human (converted). How it is done:
as §1, §2, §3, §4, §5, §6, §7, §8, §9, §10, §11, §12, §13, §14, §15, §16

In the next data set the target is T1, LecA (Pseudomonas aeruginosa, UniProt Q05097).
T1 construct: made in house
Put plainly: LecA binding and cellular uptake by fluorescence confocal microscopy. The class given is cell-based. The following applies: for Concentration for complete inhibition of LecA binding and cellular uptake: 0.5 μM LecA-AF488, H1299 cells, confocal microscopy; for LecA binding to H1299 cells (fluorescence signal): 10 μM inhibitor. How it is done:
The ability of H2 and L2 to diminish LecA binding to host receptors at the plasma membrane and its subsequent internalization into H1299 cells was further analyzed by confocal fluorescence microscopy. Here, the applied LecA concentration was increased to improve signal to noise and consequently image quality and inhibitors were preincubated with 0.5 μM LecA before addition to the cells. […] Confocal microscopy images thus confirmed that the divalent inhibitors can prevent LecA binding to the cell surface and reduce lectin uptake in a concentration‐dependent manner. […]
LecA binding and cellular uptake by fluorescence confocal microscopy
Between 5 and 7 × 10^4 cells were seeded on a 12 mm glass coverslip to which they adhered overnight, at 37 °C and 5% CO2. The next day, the cells were incubated with 0.5 µM LecA-AF488 for 30 min at 4 °C and protected from light. Where indicated, LecA was firstly preincubated with PNPG, G2, K2, H2 or L2 in RPMI medium, for 30 min at room temperature and protected from light and then added to the cells for further incubation (30 min, 4 °C).
Subsequently, cells were washed with PBS (-/-) to remove the unbound lectin and inhibitors and the samples were incubated for 1 h at 37 °C. After the lectin stimulation, cells were washed twice with ice-cold PBS (-/-), fixed with 4% paraformaldehyde solution for 15 min and quenched with 50 mM ammonium chloride for 10 min. The membrane was permeabilized and cells were blocked by 0.2% Saponin in 3% BSA in PBS (w/v) for 30 min. The cell nuclei were counterstained with DAPI (5 × 10-9 g/L), and the samples were mounted on coverslips using Mowiol 4-88 (containing the anti-bleaching reagent DABCO). Samples were visualized with laser scanning confocal microscope system from Nikon (Eclipse Ti-E, A1R), equipped with a 60x oil immersion objective and a numerical aperture (NA) of 1.49. The images were analyzed

Converted amounts (≈) assume the structure as drawn.

T1 sequence (Q05097 whole entry): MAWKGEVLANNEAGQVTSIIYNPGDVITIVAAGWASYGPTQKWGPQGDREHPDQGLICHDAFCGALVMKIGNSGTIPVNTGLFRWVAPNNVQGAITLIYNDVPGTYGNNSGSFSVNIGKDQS

In the case of `O=C(/C=C/c1ccc(O[C@@H]2O[C@H](CO)[C@H](O)[C@H](O)[C@H]2O)cc1)Nc1ccc(OCCOc2ccc(NC(=O)/C=C/c3ccc(O[C@@H]4O[C@H](CO)[C@H](O)[C@H](O)[C@H]4O)cc3)cc2)cc1` [Compound D1], the fraction unbound at 2 h, 1 µM in data set [1] was 0.006; in data set [3], 0.004. In addition, the kinetic solubility at 1 h in data set [2] is 3.3 ± 1.3 µM (≈ 2.84 µg/mL).

Turning to `O=C(CCc1ccc(O[C@@H]2O[C@H](CO)[C@H](O)[C@H](O)[C@H]2O)cc1)Nc1ccc(OCCOc2ccc(NC(=O)CCc3ccc(O[C@@H]4O[C@H](CO)[C@H](O)[C@H](O)[C@H]4O)cc3)cc2)cc1` [Compound D2], the solubility (kinetic) at 1 h in data set [2] worked out at 3.1 ± 2.1 µM (≈ 2.68 µg/mL). In addition, the fraction unbound at 2 h, 1 µM in data set [3] is 0.005.

As to `COc1ccc(NC(=O)CCc2ccc(O[C@@H]3O[C@H](CO)[C@H](O)[C@H](O)[C@H]3O)cc2)cn1` [Compound G2], the “Concentration for complete inhibition of LecA binding and cellular uptake” value at LecA turned out to be 75 µM.

With `O=C(/C=C/c1ccc(O[C@@H]2O[C@H](CO)[C@H](O)[C@H](O)[C@H]2O)cc1)Nc1ccc(OCCOc2ccc(NC(=O)/C=C/c3ccc(O[C@@H]4O[C@H](CO)[C@H](O)[C@H](O)[C@H]4O)cc3)cn2)nc1` [Compound H1], the solubility (kinetic) at 1 h in data set [2] came to 8.1 ± 2.2 µM (≈ 6.99 µg/mL).

In the case of `O=C(CCc1ccc(O[C@@H]2O[C@H](CO)[C@H](O)[C@H](O)[C@H]2O)cc1)Nc1ccc(OCCOc2ccc(NC(=O)CCc3ccc(O[C@@H]4O[C@H](CO)[C@H](O)[C@H](O)[C@H]4O)cc3)cn2)nc1` [Compound H2], the fraction unbound at 2 h, 1 µM in data set [1] is 0.03; in data set [3] it was 0.005. For the same compound, the kinetic solubility at 1 h in data set [2] came out at 14.8 ± 1.5 µM (≈ 12.8 µg/mL). The “LecA binding to H1299 cells (fluorescence signal)” value at LecA is recorded as “remarkably decreased”.

For `Cc1ccc(NC(=O)CCc2ccc(O[C@@H]3O[C@H](CO)[C@H](O)[C@H](O)[C@H]3O)cc2)cc1S(=O)(=O)O` [Compound K2], the “Concentration for complete inhibition of LecA binding and cellular uptake” value on LecA amounted to 75 µM.

With `O=C(CCc1ccc(O[C@@H]2O[C@H](CO)[C@H](O)[C@H](O)[C@H]2O)cc1)Nc1ccc(CCc2ccc(NC(=O)CCc3ccc(O[C@@H]4O[C@H](CO)[C@H](O)[C@H](O)[C@H]4O)cc3)cc2S(=O)(=O)O)c(S(=O)(=O)O)c1` [Compound L2], the fraction unbound at 2 h, 1 µM was 0.86 in data set [1] and 0.62 in data set [3]. The “LecA binding to H1299 cells (fluorescence signal)” value on LecA is reported as “remarkably decreased”.

As a reminder, the kinetic solubility is solubility judged after dilution from a stock solution rather than from solid.
